According to US20220054477A1, “INDUCTION OF SUSTAINED LOCAL INFLAMMATION” (Ascendis Pharma Oncology Division A/S, priority 2019, published 2022):
Marks after values point to notes of the source that are not given here.

Columns and labels:
[1] = tested on: CD8+ T cells; test: Flow cytometry of tumor draining lymph nodes: frequency of CD8+ T cells of CD3+ T cells (Example 15); type: in vivo, BALB/C mice; settings: 7 days after randomization
Protocol: (§1) Hydrogels were administered as suspension in PTP buffer. Some cohorts were further treated with 20 μg human IL-2 (Peprotech, Rocky Hill, N.J.), intraperitoneally (I.P.), twice a day for 5 days. Mice were sacrificed 7 days after randomization (D0). Following sacrifice, tumor draining lymph nodes were isolated from both flanks and were dissociated mechanically to generate a single cell suspension at a cell concentration of 1×10^6 cells per sample. Cell suspensions were centrifuged at 300 g for 5 minutes. Supernatants were discarded and cells were resuspended in FACS buffer with 1 μg/ml Fc-Block and incubated at 4° C. for 10 minutes in the dark. Surface marker antibody mixtures (antibody concentration: 10 μg/mL) in FACS buffer were added to each sample and samples were incubated in the dark at 4° C. for 30 minutes. Cells were centrifuged at 300 g for 5 minutes and supernatants were discarded. Cells were washed and then resuspended with FACS buffer before cytometer collection.
(§2) After collection, FACS data was analyzed using FlowJo Version 10.6.1. Compensation was digitally adjusted using single antibody-stained beads. Samples with less than 90% viability, as determined by LiveDead cell staining, were excluded from the analysis. […]

[2] = tested on: Ly-6C+ MHCII+ antigen presenting cells; test: Flow cytometry of tumor draining lymph nodes: frequency of IA-IE (MHCII)+ antigen presenting cells of Ly-6C+ antigen presenting cells (Example 15); type: in vivo, BALB/C mice; settings: 7 days after randomization
Protocol: as §1, §2

[3] = tested on: Il1a; test: PBMC gene expression (qPCR, 6 hours post-treatment): Il1a (Example 17); type: in vivo, BALB/C mice
Protocol: (§3) Hydrogels were administered as suspensions in PTP buffer. […] Tumors were excised, weighed and snap frozen.
(§4) For PBMC isolations, approximately 600 μl of whole blood was collected via cardiac puncture. The collected whole blood from each individual mouse was diluted with a 1:1 ratio of pre-warmed PBS supplemented with 2% Fetal Bovine Serum (FBS). Then an equal volume of Histopaque-1083 was added to a new sterile 15 mL conical tube, where the diluted whole blood was layered over the Histopaque-1083. The mixture was then centrifuged at 400 g for 30 minutes. […]
(§5) Lysates from untreated control samples and 6 hour treated samples were thawed and RNA was isolated using the RNeasy Mini Kit (QIAGEN) following manufacturer's recommendations. […] RNA concentrations were measured using a NanoDrop (ThermoFisher) and then adjusted to […] with RNase-free water. RNA quality was assessed using a NanoDrop (ThermoFisher). […] 200 ng of cDNA was used for quantitative PCR using the RT^2 SYBR Green ROX qPCR Master mix (2×) kit (QIAGEN) following manufacturer's recommendations. […]
(§6) Cycle thresholds (CT) were collected using a 384-well platform ABI-7900H real-time qPCR system (Applied Biosystems). […] 2^ΔΔCT values were calculated with the following formula: […]
(§7) For each gene, 3 technical replicates were analyzed per biological replicate. Undetermined technical replicate CT values were recorded as zero ΔCT values. […]

[4] = tested on: Tnf; test: PBMC gene expression (qPCR, 6 hours post-treatment): Tnf (Example 17); type: in vivo, BALB/C mice
Protocol: as §3, §4, §5, §6, §7

[5] = tested on: Cxcl10; test: PBMC gene expression (qPCR, 6 hours post-treatment): Cxcl10 (Example 17); type: in vivo, BALB/C mice
Protocol: as §3, §4, §5, §6, §7

[6] = tested on: Il1b; test: PBMC gene expression (qPCR, 6 hours post-treatment): Il1b (Example 17); type: in vivo, BALB/C mice
Protocol: as §3, §4, §5, §6, §7

[7] = tested on: Il10; test: PBMC gene expression (qPCR, 6 hours post-treatment): Il10 (Example 17); type: in vivo, BALB/C mice
Protocol: as §3, §4, §5, §6, §7

[8] = parameters: species or system WISTAR rats; settings: rat, in vivo, sc, 25 ug
Text: Hydrogels were suspended (ca. 6% wt/v) PBST buffer at pH 7.4. […] Blood samples were withdrawn and used for plasma generation over the course of 28 d. […] Plasma concentration profiles were generated and analyzed with Phoenix WinNonlin software (Certara, Princeton, N.J., USA).

[9] = tested on: CCL2/MCP-1; test: In vivo cytokine induction, plasma cytokine levels: CCL2/MCP-1 (Example 12); parameters: species or system BALB/C mice; settings: single intratumoral dose
Protocol: (§8) Mice were subcutaneously implanted with 3×10^5 CT26 tumor cells in the left and right flanks. […] Hydrogels were administered as suspensions in PBST buffer. K2 EDTA-preserved blood samples were collected by retro-orbital bleed at various time points following drug administration and plasma was isolated following centrifugation at 2000×g for 5 minutes at 4° C. and frozen. Plasma samples were stored at −80° C. Plasma was thawed and undiluted samples were assessed for cytokine levels using the 36-Plex Mouse ProcartaPlex™ Cytokine Panel 1A (ThermoFisher Scientific) following manufacturer's recommendations. Cytokines were measured on the Bio-Plex 200 (BioRad) following kit instructions. For sample values below or at the lower limit of quantitation (LLOQ) of the assay, a value of 0.01 pg/mL was instead used in determining mean cytokine concentrations.

[10] = tested on: Ccl3; test: PBMC gene expression (qPCR, 6 hours post-treatment): Ccl3 (Example 17); type: in vivo, BALB/C mice
Protocol: as §3, §4, §5, §6, §7

[11] = tested on: TNFα; test: In vivo cytokine induction, plasma cytokine levels: TNFα (Example 12); parameters: species or system BALB/C mice; settings: single intratumoral dose
Protocol: as §8

[12] = tested on: CD4+ T cells; test: Flow cytometry of tumor draining lymph nodes: frequency of CD4+ T cells of CD3+ T cells (Example 15); type: in vivo, BALB/C mice; settings: 7 days after randomization
Protocol: as §1, §2

[13] = tested on: Ccl4; test: PBMC gene expression (qPCR, 6 hours post-treatment): Ccl4 (Example 17); type: in vivo, BALB/C mice
Protocol: as §3, §4, §5, §6, §7

[14] = tested on: IFNγ; test: In vivo cytokine induction, plasma cytokine levels: IFNγ (Example 12); parameters: species or system BALB/C mice; settings: single intratumoral dose, values at or below LLOQ set to 0.01
Protocol: as §8

[15] = tested on: Cxcl1; test: PBMC gene expression (qPCR, 6 hours post-treatment): Cxcl1 (Example 17); type: in vivo, BALB/C mice
Protocol: as §3, §4, §5, §6, §7

[16] = tested on: IL-6; test: In vivo cytokine induction, plasma cytokine levels: IL-6 (Example 12); parameters: species or system BALB/C mice; settings: single intratumoral dose
Protocol: as §8

[17] = tested on: Ly-6C+ antigen presenting cells; test: Flow cytometry of tumor draining lymph nodes: frequency of Ly-6C+ antigen presenting cells of non-T cells (Example 15); type: in vivo, BALB/C mice; settings: 7 days after randomization
Protocol: as §1, §2

[18] = tested on: Ly-6C+ CD8+ T cells; test: Flow cytometry of tumor draining lymph nodes: frequency of Ly-6C+ T cells of CD8+ T cells (Example 15); type: in vivo, BALB/C mice; settings: 7 days after randomization
Protocol: as §1, §2

[19] = tested on: Cxcl2; test: PBMC gene expression (qPCR, 6 hours post-treatment): Cxcl2 (Example 17); type: in vivo, BALB/C mice
Protocol: as §3, §4, §5, §6, §7

[20] = tested on: CT26 tumor cells; test: In vivo anti-tumor efficacy, CT26 tumor volumes (Example 11); parameters: species or system BALB/C mice; settings: single intratumoral dose
Protocol: Mice were subcutaneously implanted with 3×10^5 CT26 tumor cells in the left and right flanks. […] Hydrogels were administered as suspensions in PBST buffer. Following treatment initiation, anti-tumor efficacy was assessed by determination of tumor volumes at various time points from tumor size measurements with a caliper. Tumor volumes were calculated according to the formula: […]
where L is the length of the tumor and W the width (both in mm). Mice were removed from the study once tumors were greater than 1500 mm^3.

[21] = tested on: Ifna4; test: PBMC gene expression (qPCR, 6 hours post-treatment): Ifna4 (Example 17); type: in vivo, BALB/C mice
Protocol: as §3, §4, §5, §6, §7

[22] = tested on: Ccl2; test: PBMC gene expression (qPCR, 6 hours post-treatment): Ccl2 (Example 17); type: in vivo, BALB/C mice
Protocol: as §3, §4, §5, §6, §7

- AUCPred-∞ [8]: 0.0654 µg·h/mL
- Cmax [8]: 0.0231 µg/mL
- t1/2 (biphasic), first value [8]: 1.5 h
- t1/2 (biphasic), second value [8]: 10 h
Substance: Resiquimod [Compound 4]
- Frequency of CD8+ T cells of CD3+ T cells, Mean ([1]; injected right flank tumor): 29.23%
- Frequency of CD8+ T cells of CD3+ T cells, Mean ([1]; uninjected left flank tumor): 29%
- Frequency of IA-IE (MHCII)+ antigen presenting cells of Ly-6C+ antigen presenting cells, Mean ([2]; injected right flank tumor): 69.63%
- Frequency of IA-IE (MHCII)+ antigen presenting cells of Ly-6C+ antigen presenting cells, Mean ([2]; uninjected left flank tumor): 35.05%
- Il1a Mean (2^ΔΔCT) [3]: 0.41
- Il1a Fold change (4/13i) ([3]; ratio of 4 to 13i): 1.78
- Tnf Mean (2^ΔΔCT) [4]: 4.64
- Tnf Fold change (4/13i) ([4]; ratio of 4 to 13i): 4.45
- Cxl10 Mean (2^ΔΔCT) [5]: 45.38
- Cxl10 Fold change (4/13i) ([5]; ratio of 4 to 13i): 21.41
- Il1b Mean (2^ΔΔCT) [6]: 3.71†
- Il1b Fold change (4/13i) ([6]; ratio of 4 to 13i): 7.92
- Il10 Mean (2^ΔΔCT) [7]: 2.77†
- Il10 Fold change (4/13i) ([7]; ratio of 4 to 13i): 2.29
- CCL2/MCP-1 plasma level, Mean ([9]; 1 h post-treatment): 357.83 pg/mL
- CCL2/MCP-1 plasma level, Mean ([9]; 3 h post-treatment): 4230.35†, ‡ pg/mL
- CCL2/MCP-1 plasma level, Mean ([9]; 6 h post-treatment): 1039.17†, ‡ pg/mL
- CCL2/MCP-1 plasma level, Mean ([9]; 10 h post-treatment): 847.07† pg/mL
- CCL2/MCP-1 plasma level, Mean ([9]; 24 h post-treatment): 92.58 pg/mL
- Ccl3 Mean (2^ΔΔCT) [10]: 1.43†
- Ccl3 Fold change (4/13i) ([10]; ratio of 4 to 13i): 1.64
- TNFα plasma level, Mean ([11]; 1 h post-treatment): 830.84 pg/mL
- TNFα plasma level, Mean ([11]; 3 h post-treatment): 136.25 pg/mL
- TNFα plasma level, Mean ([11]; 6 h post-treatment): 35.49 pg/mL
- TNFα plasma level, Mean ([11]; 10 h post-treatment): 43.32 pg/mL
- TNFα plasma level, Mean ([11]; 24 h post-treatment): 9.74 pg/mL
- Frequency of CD4+ T cells of CD3+ T cells, Mean ([12]; injected right flank tumor): 69.1%
- Frequency of CD4+ T cells of CD3+ T cells, Mean ([12]; uninjected left flank tumor): 69.25%
- Ccl4 Mean (2^ΔΔCT) [13]: 1.31
- Ccl4 Fold change (4/13i) ([13]; ratio of 4 to 13i): 1.74
- IFNγ plasma level, Mean ([14]; 1 h post-treatment): 4.04 pg/mL
- IFNγ plasma level, Mean ([14]; 3 h post-treatment): 15.49†, ‡ pg/mL
- IFNγ plasma level, Mean ([14]; 6 h post-treatment): 40.72†, ‡ pg/mL
- IFNγ plasma level, Mean ([14]; 10 h post-treatment): 28.19†, ‡ pg/mL
- IFNγ plasma level, Mean ([14]; 24 h post-treatment): 2.38 pg/mL
- Cxcl1 Mean (2^ΔΔCT) [15]: 7.41
- Cxcl1 Fold change (4/13i) ([15]; ratio of 4 to 13i): 11.54
- IL-6 plasma level, Mean ([16]; 1 h post-treatment): 3618.87†, ‡ pg/mL
- IL-6 plasma level, Mean ([16]; 3 h post-treatment): 1739.75†, ‡ pg/mL
- IL-6 plasma level, Mean ([16]; 6 h post-treatment): 88.59 pg/mL
- IL-6 plasma level, Mean ([16]; 10 h post-treatment): 154.51 pg/mL
- IL-6 plasma level, Mean ([16]; 24 h post-treatment): 44.71 pg/mL
- Frequency of Ly-6C+ antigen presenting cells of non-T cells, Mean ([17]; injected right flank tumor): 2.5%
- Frequency of Ly-6C+ antigen presenting cells of non-T cells, Mean ([17]; uninjected left flank tumor): 7.8%
- Frequency of Ly-6C+ T cells of CD8+ T cells, Mean ([18]; injected right flank tumor): 53.7%
- Frequency of Ly-6C+ T cells of CD8+ T cells, Mean ([18]; uninjected left flank tumor): 48%
- Cxcl2 Mean (2^ΔΔCT) [19]: 35.37
- Cxcl2 Fold change (4/13i) ([19]; ratio of 4 to 13i): 6.43
- Absolute tumor volume, Mean ([20]; day 0 post-treatment): 88.82 mm^3
- Absolute tumor volume, Mean ([20]; day 2 post-treatment): 108.44 mm^3
- Absolute tumor volume, Mean ([20]; day 4 post-treatment): 128.42 mm^3
- Absolute tumor volume, Mean ([20]; day 7 post-treatment): 316.07 mm^3
- Absolute tumor volume, Mean ([20]; day 9 post-treatment): 549.72 mm^3
- Absolute tumor volume, Mean ([20]; day 11 post-treatment): 957.90 mm^3
- Absolute tumor volume, Mean ([20]; day 14 post-treatment): 1220.96 mm^3
- Ifna4 Mean (2^ΔΔCT) [21]: 2.97
- Ifna4 Fold change (4/13i) ([21]; ratio of 4 to 13i): 20.48
- Ccl2 Mean (2^ΔΔCT) [22]: 6.75
- Ccl2 Fold change (4/13i) ([22]; ratio of 4 to 13i): 2.82
